According to ChEMBL document CHEMBL3352585, “2013 Philip S. Portoghese Medicinal Chemistry Lectureship: drug discovery targeting allosteric sites” (J Med Chem, 2014):
One block for each compound: values may come before it.

Key:
[1] = molecular target: T1, Muscarinic acetylcholine receptor M5 (Homo sapiens, UniProt P08912); assay: Allosteric agonist activity at human muscarinic acetylcholine receptor M5
T1 sequence (P08912 whole entry): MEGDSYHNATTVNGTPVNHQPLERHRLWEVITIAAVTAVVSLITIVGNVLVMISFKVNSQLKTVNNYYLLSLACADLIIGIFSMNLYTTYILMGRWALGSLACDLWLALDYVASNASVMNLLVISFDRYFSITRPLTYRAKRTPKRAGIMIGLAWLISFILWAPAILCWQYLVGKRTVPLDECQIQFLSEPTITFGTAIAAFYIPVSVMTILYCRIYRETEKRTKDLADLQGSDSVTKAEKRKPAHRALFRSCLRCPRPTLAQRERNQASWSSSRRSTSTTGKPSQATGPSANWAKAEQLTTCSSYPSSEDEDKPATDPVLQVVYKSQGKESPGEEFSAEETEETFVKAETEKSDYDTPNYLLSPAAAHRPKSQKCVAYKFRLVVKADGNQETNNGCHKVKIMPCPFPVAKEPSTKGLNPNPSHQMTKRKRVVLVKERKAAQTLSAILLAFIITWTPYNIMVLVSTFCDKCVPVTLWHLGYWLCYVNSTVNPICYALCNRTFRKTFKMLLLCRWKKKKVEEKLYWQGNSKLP

[2] = molecular target: T1, Muscarinic acetylcholine receptor M5; assay: Negative allosteric modulator activity at human muscarinic acetylcholine receptor M5 expressed in CHO cells by fluorometric imaging plate reader; type: cell-based
[3] = molecular target: T1, Muscarinic acetylcholine receptor M5; assay: Silent allosteric modulator activity at human muscarinic acetylcholine receptor M5 expressed in CHO cells by fluorometric imaging plate reader; type: cell-based
[4] = molecular target: T1, Muscarinic acetylcholine receptor M5; assay: Positive allosteric modulator activity at human muscarinic acetylcholine receptor M5 expressed in CHO cells by fluorometric imaging plate reader; type: cell-based
[5] = Inhibition of PKA (unknown origin); set-up: species or system Homo sapiens
Protein kinase C (PKC) = assay: Inhibition of PKC (unknown origin); set-up: species or system Homo sapiens
[6] = molecular target: T2, Serine/threonine-protein kinase Sgk1 (Homo sapiens, UniProt O00141); assay: Inhibition of SGK (unknown origin)
T2 sequence (O00141 whole entry): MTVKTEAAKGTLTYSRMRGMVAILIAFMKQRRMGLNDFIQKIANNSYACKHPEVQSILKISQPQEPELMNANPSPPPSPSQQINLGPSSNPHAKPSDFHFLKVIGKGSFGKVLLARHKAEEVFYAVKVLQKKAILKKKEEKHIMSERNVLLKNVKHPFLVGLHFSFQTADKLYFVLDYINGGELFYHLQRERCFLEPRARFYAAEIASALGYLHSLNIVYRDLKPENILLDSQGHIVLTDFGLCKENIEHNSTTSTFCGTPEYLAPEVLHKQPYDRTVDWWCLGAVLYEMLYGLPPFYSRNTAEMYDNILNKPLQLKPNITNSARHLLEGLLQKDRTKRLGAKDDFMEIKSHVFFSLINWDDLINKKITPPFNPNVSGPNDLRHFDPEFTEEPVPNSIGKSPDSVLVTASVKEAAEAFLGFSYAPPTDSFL

Compound: COc1cccc(/C=N/N=C/c2cccc(OC)c2)c1
- EC50 [2]: 3 µM

Compound: Clc1cccc(/C=N/N=C/c2cccc(Cl)c2)c1
- EC50 [3]: 7.6 µM

Compound: CC(C)(N)c1ccc(-c2nc3ccccc3nc2-c2ccccc2)cc1
- IC50 [5]: > 250 µM
- IC50 (Protein kinase C (PKC)): > 250 µM
- IC50 [6]: > 250 µM

Other lines, results leading:

- EC50 [1]: 400 nM
Compound: O=C(N[C@H]1C[C@H](O)C1)c1ccc(C#Cc2cccc(F)c2)cn1

- EC50 [4]: 33 nM
Compound: O=C(N[C@H]1C[C@@H](O)C1)c1ccc(C#Cc2cccc(F)c2)cn1

- EC50 [4]: 2600 nM
Compound: Fc1cccc(/C=N/N=C/c2cccc(F)c2)c1
